Data taken from paper PMC7281206, “Cysteine Cathepsins Inhibition Affects Their Expression and Human Renal Cancer Cell Phenotype” (Cancers, 2020).
*: point of attachment. CH2F = FC*

Key:
[1] = test system: human recombinant CtsL; experiment: Fluorescent protease activity assay, recombinant CtsL; format: biochemical; conditions: 20 nM CtsL, 50 μM Ac-PLVQ-AMC, inhibitor 2 μM; 0.1 M sodium acetic buffer pH 4.6, 12 min, Ex/Em 353/442 nm
Procedure: Ac-PLVE-FMK and Ac-VLPE-FMK inhibitory properties were evaluated against human recombinant CtsL and B. These recombinant enzymes were expressed in E. coli via plasmid transformation and further purification, using nickel-nitrilotriacetic acid (Ni-NTA) sepharose. Gel zymography assay was used to provide a preliminary evaluation of the ability of these recombinant proteins to degrade the gelatin substrate previously embedded in the gel (Supplementary Figure S1). Following Coomassie staining, the Cts were detectable as single bands. As expected, a translucent area was evident, due to the substrate digestion in the proximity of the proteins. Then, the recombinant proteins were tested for their ability to digest the Triticain-α substrate Ac-PLVQ via fluorescent protease activity assay, previously optimized by our group. This probe was conjugated with the fluorogenic chromophore 7-amino-4-methylcoumarin (Ac-PLVQ-AMC). After proteolytic cleavage, it emits a detectable fluorescent signal.
Total RNA extract from retinoblastoma […] cells was used to obtain cDNA. A pair of oligonucleotides ([…] and […]) was used for the amplification of DNA fragment containing CtsB, the product of which was ligated into pET15b (Merck Millipore, Billerica, MA, USA) using NdeI and XhoI. DNA fragment containing CtsL was amplified using a pair of oligonucleotides ([…] and […]) and ligated into pET28a (+) (Merck Millipore, Billerica, MA, USA) using NheI and HindIII. […]
The activity of recombinant CtsL and B was detected by the hydrolysis of the fluorogenic substrate Ac-Pro-Leu-Val-Gln- 7-amino-4-methylcoumarin (AMC) (Pepmic Suzhou Jiangsu, China). […] The substrate was added to a final concentration of 50 μM, and its hydrolysis was continuously measured for 12 min using a CLARIOstar® Plus plate reader (BMG Labtech Ortenberg Baden-Württemberg, Germany) at excitation and emission wavelengths of 353 and 442 nm, respectively.

[2] = test system: A498 cells; experiment: Cell viability/proliferation (MTT), A498; format: cell-based, human; conditions: 2.5–250 μM; for Cell viability: 72 h; for Effect on cell proliferation: within 48 h
Procedure: Figure 3 The effect of the peptide inhibitors on human 769-P and A498 renal cancer cell proliferation and proteolytic activity. (a) 769-P and (b) A498 cells were treated with increasing doses of Ac-PLVE-FMK (red bars) and Ac-VLPE-FMK (blue bars) (2.5–250 μM). Cell proliferation was measured after 24, 48, and 72 h via MTT (3-(4,5-dimethylthiazol-2-yl)-2,5-diphenyltetrazolium bromide) assay. Data represent the mean (±S.D.) of at least three independent experiments, each performed in triplicate. (c) Fluorescence microscopy evaluation and quantification of the cell proteolytic activity in 769-P and (d) A498 cells towards the fluorogenic substrate Ac-PLVQ-AMC in the absence or presence of Ac-PLVE-FMK and Ac-VLPE-FMK. The cells were seeded in a 96-well plate and after exposure to the peptides for 30 min prior incubation with the fluorescent substrate Ac-PLVQ-AMC for 10 min. Data are expressed as mean (±S.D.), and significance was calculated through one-way ANOVA followed by Dunnet’s test. * = p < 0.05, ** = p < 0.01, *** = p < 0.001.
The human renal cancer cell line lines […], A498 were obtained from Dr. Vadim Pokrovsky (purchased from American Type Culture Collection). The cells were cultured in RPMI 1640, supplemented with 10% fetal bovine serum and 1% mixture of antibiotics penicillin-streptomycin (all from Gibco, Waltham, MA, USA) at 5% CO2 and 37 °C in a humidified chamber. Cells were grown to confluence and harvested by trypsinization, using a 0.25 mg/mL trypsin/EDTA solution (ThermoFisher, Carlsbad, CA, USA) and resuspended in the fresh culture medium. Viable cells were enumerated on the Countess II FL Automated Cell Counter (ThermoFisher, Waltham, MA, USA), following Trypan Blue staining. The cell lines were tested for mycoplasma contamination regularly, using the Molecular Probes™ MycoFluor Mycoplasma Detection Kit (ThermoFisher, Waltham, MA, USA).
The cell number was evaluated by counting viable cells using the MTT (3-(4,5-dimethylthiazol-2-yl)-2,5-diphenyltetrazolium bromide) colorimetric assay. A total of 2 × 10^4 cells/well were seeded on independent 96-well plates for each time point (0, 24, 48, and 72 h), with five replicates and treated with two inhibitors (2.5–250 μM). Then, 10 µL of the MTT reagent was added to each well, and cells were incubated for another 5 h. Next, the absorbance value was measured using a CLARIOstar® Plus plate reader (BMG Labtech, Ortenberg, Germany) at 490 nm. Triplicate wells were assayed, and S.D.s were determined.

Substance | Inhibition of Ac-PLVQ-AMC cleavage (fluorescent signal) [1] | Cell viability [2] | Effect on cell proliferation [2]
Ac-PLVE-CH2F [Ac-PLVE-FMK] | the intensity of the fluorescent signal was significantly affected | cell viability increased, reaching values not significantly different from the control cells | cytostatic properties on both cell lines only within 48 h of treatment
Ac-VLPE-CH2F [Ac-VLPE-FMK] | the intensity of the fluorescent signal was significantly affected | cell viability increased, reaching values not significantly different from the control cells | cytostatic properties on both cell lines only within 48 h of treatment
